Measured values: patent US20250352527A1, “METHODS FOR TREATING VIRAL INFECTIONS, ORGAN INJURY, AND RELATED CONDITIONS” (Akebia Therapeutics, Inc., priority 2021, published 2025)
“Also recorded” adds a separate entry of the source.

Tests used:
[1] = tested on: IL-6; assay: Luminex cytokine levels in BAL: IL-6; conditions: vs vehicle disease control
[2] = tested on: TNFα; assay: Luminex cytokine levels in BAL: TNFα; type: in vivo, mice; conditions: vs vehicle disease control
Description: (§1) All animals survived to study termination.
• 1. […] Seal the plate with a plate sealer.

[3] = tested on: hospitalized patients with coronavirus disease 2019 (COVID-19); assay: Randomized, double-blind, placebo-controlled clinical trial for prevention and treatment of ARDS; type: in vivo, human; conditions: 900 mg once daily for 14 days
Method: This example describes use of 5-(3-chlorophenyl)-3-hydroxypyridine-2-carbonyl]amino}acetic acid (vadadustat) in a multicenter, randomized, double-blind, placebo-controlled Bayesian adaptive clinical for the prevention and treatment of acute respiratory distress syndrome (ARDS) in hospitalized patients with coronavirus disease 2019 (COVID-19).
Following screening, patients are randomized in a 1:1 ratio to either vadadustat 900 mg or placebo. Randomization is stratified by site, and MSOFA score at baseline (<4 and >4).
A subject may receive vadadustat (e.g., 900 mg vadadustat as 6 tablets once daily) for 14 days and without regard for meals at approximately the same time each day. Tablets can be crushed using a pill crusher and administered to an intubated patient through a nasogastric tube.
Efficacy may also be assessed according to any of the following (including any combination thereof): • 1. The proportion of patients at day 14 who are dead (8) or hospitalized, on invasive mechanical ventilation or ECMO (7) or hospitalized, on non-invasive ventilation or high flow oxygen devices (6) on the NIAID-OS. • 2. Proportions of patients with a score of 0 at 14 days on the MSOFA (Modified Sequential Organ Failure Assessment) scale:
• 3. Average MSOFA scores at day 7 and day 14. • 4. Proportion of patients who develop ARDS or experienced increased ARDS severity from baseline based on the Berlin scale. • 5. Ventilator-free survival at day 7 and day 14. • 6. Overall survival at day 7 and day 14. • 7. Proportion of patients with hypotension (MAP (Mean Arterial Pressure)<70 mm Hg or requirement for inotropes or vasopressors to maintain blood pressure) at day 7 and day 14. • 8. Proportion of patients with acute kidney injury at day 7 and day 14. • 9. Time to hospital discharge.

[4] = Body weight change from day -2 in LPS-induced lung inflammation model; type: in vivo, mice; conditions: vs vehicle disease control; for body weight change from day -2: 6 hours post-LPS
Description: as §1
Body weight measurements were collected and the animals were euthanized for necropsy and terminal sample collection on day 0 or day 1.
The mice were weighed for randomization on study day −2 and were weighed again on day 0.

[5] = 100 mg/kg PO QD days -2 to 0 (final dose 1 h pre-LPS), 6 hours post-LPS
[6] = 100 mg/kg PO QD days -2 to 0 (final dose 7 h post-LPS), 24 hours post-LPS
[7] = 100 mg/kg PO single dose 1 h post-LPS, 8 hours post-LPS
[8] = 300 mg/kg PO single dose 1 h post-LPS, 8 hours post-LPS
[9] = day 7 and day 14, compared to placebo

Compound: O=C(O)CNC(=O)c1ncc(-c2cccc(Cl)c2)cc1O [Compound 1, {[5-(3-chlorophenyl)-3-hydroxypyridine-2-carbonyl]amino}acetic acid]
- IL-6 levels in BAL fluids [1, 5]: decrease in IL-6 levels at 6 hours post-LPS compared to vehicle disease control, though not statistically significant; also recorded: did not differ statistically
- IL-6 levels in BAL fluids [1, 6]: Significantly increased; also recorded: significant increases
- IL-6 levels in BAL fluids [1, 7]: decrease in IL-6 and TNFα levels at 8 hours post-LPS compared to vehicle disease control, though not statistically significant; also recorded: no significant differences
- IL-6 levels in BAL fluids ([1]; 300 mg/kg PO QD days -2 to 0 (final dose 1 h pre-LPS), 6 hours post-LPS): decrease in IL-6 levels at 6 hours post-LPS compared to vehicle disease control, though not statistically significant
- IL-6 levels in BAL fluids [1, 8]: decrease in IL-6 and TNFα levels at 8 hours post-LPS compared to vehicle disease control, though not statistically significant; also recorded: no significant differences
- TNFα levels in BAL fluids [2, 5]: did not differ statistically
- TNFα levels in BAL fluids [2, 6]: Significantly increased; also recorded: significant increases
- TNFα levels in BAL fluids [2, 7]: decrease in IL-6 and TNFα levels at 8 hours post-LPS compared to vehicle disease control, though not statistically significant; also recorded: no significant differences
- TNFα levels in BAL fluids [2, 8]: decrease in IL-6 and TNFα levels at 8 hours post-LPS compared to vehicle disease control, though not statistically significant; also recorded: no significant differences
- proportions of patients with a score of 0 on the MSOFA ([3]; at 14 days, compared to placebo): an increase
- proportion of patients who develop ARDS or experienced increased ARDS severity from baseline based on the Berlin scale ([3]; compared to placebo): a lower or a reduction
- average MSOFA scores [3, 9]: a lower or a reduction
- overall survival [3, 9]: a greater or an increase
- proportion of patients with hypotension (MAP <70 mm Hg or requirement for inotropes or vasopressors) [3, 9]: a lower or a reduction
- ventilator-free survival [3, 9]: a greater or an increase
- proportion of patients with acute kidney injury ([3]; day 7 and day 14, versus placebo): a lower or a reduction
- proportion of patients who are dead (8), on invasive mechanical ventilation or ECMO (7) or on non-invasive ventilation or high flow oxygen devices (6) on the NIAID-OS ([3]; day 14, compared to placebo): a lower or a reduction
- time to hospital discharge ([3]; versus placebo): a shorter or a reduction
- absolute body weight change ([4]; 100 mg/kg PO QD days -2 to 0 (final dose 7 h post-LPS, 4 doses), 24 hours post-LPS): did not differ statistically
- absolute body weight change [4, 7]: no significant differences
- body weight change from day -2 ([4]; 300 mg/kg PO QD days -2 to 0 (final dose 1 h pre-LPS)): Significantly increased body weight loss; also recorded: statistically significant absolute weight loss
- absolute body weight change ([4]; 300 mg/kg PO QD days -2 to 0 (final dose 7 h post-LPS, 4 doses), 24 hours post-LPS): did not differ statistically
- absolute body weight change [4, 8]: no significant differences

Compound: C[C@@H]1C[C@H]2[C@@H]3CCC4=CC(=O)C=C[C@]4(C)[C@@]3(F)[C@@H](O)C[C@]2(C)[C@@]1(O)C(=O)CO [dexamethasone, reference compound]
- body weight change from day -2 ([4]; 3 mg/kg PO 1x 1 h pre-LPS): did not differ statistically
